Reference: patent US20260242335A1, “HETEROCYCLOALKYL BETA-HYDROXY ALKYL AMINES FOR USE IN THE TREATMENT OF HYPERGLYCAEMIA AND DISORDERS CHARACTERISED BY HYPERGLYCAEMIA” (ATROGI AB, priority 2023, published 2026)
Counter-ions that a name gives are not always drawn.

How the values were obtained:
L6-myotubes [1] = assay: Measurement of intracellular cAMP levels (alpha screen cAMP kit) in differentiated cells, compared to isoproterenol; assay type: cell-based; conditions: 0.25 h, compound at 10 μM vs isoproterenol at 10 μM, 15 min stimulation, read-out: Biological example 2: intracellular cAMP level activity compared to that of isoproterenol
Protocol: (§1) L6-myoblasts were grown in Dulbecco's Modified Eagle's Medium (DMEM) containing 1 g/L glucose supplemented with 10% fetal bovine serum, 2 mM L-Glutamine, 50 U/mL penicillin, […] streptomycin and 10 mM HEPES. Cells were plated at 1×10^5 cells per mL in 24-well plates. After reaching 90% confluence the cells were grown in medium containing 2% FBS for 7 days where upon cells differentiated into myotubes.
Differentiated cells were serum-starved overnight and stimulated with an agonist, final concentration 1×10^−5 M, for 15 min in stimulation buffer (HBSS supplemented with 1% BSA, 5 mM HEPES and 1 mM IBMX, pH 7.4). The medium was aspirated and 100 μL of 95% EtOH was added to each well of the 24-well plate and cells were kept at −20° C. overnight. The EtOH was allowed to evaporate and 500 μL of lysis buffer (1% BSA, 5 mM HEPES and 0.3% Tween-20, pH 7.4) was added to each well. The plate was kept at −80° C. for 30 min and then at −20° C. until the day of detection when the samples were thawed. Intracellular cAMP levels were detected using an alpha screen cAMP kit (6760635D from Perkin Elmer). The activity for each compound is compared to that of isoproterenol.

L6-myotubes [2] = assay: Glucose uptake (3H-2-deoxyglucose) in differentiated L6-myotubes, compared to isoproterenol; assay type: cell-based; conditions: compound at 10 μM vs isoproterenol at 10 μM, read-out: Biological example 1: glucose uptake activity compared to that of isoproterenol
Protocol: as §1
Differentiated L6-myotubes were serum-starved overnight in medium containing 0.5% fatty-acid free BSA and stimulated with an agonist, with a final concentration of 1×10^−5 M. After 1 h 40 min the cells were washed with warm glucose free medium or PBS twice and another portion of agonist was added to the glucose free medium. After 20 min the cells were exposed to 50 nM ^3H-2-deoxyglucose for another 10 min before washed in ice cold glucose free medium or PBS three times and lysed in 400 μL/well 0.2 M NaOH for 1 h at 60° C. The cell lysate was mixed with 4 mL scintillation buffer (Emulsifier Safe, Perkin Elmer) and the radioactivity was detected in a p-counter (Tri-Carb 4810TR, Perkin Elmer). The activity for each compound is compared to that of isoproterenol.

Row | Structure (SMILES) | Emax at 10 µM (L6-myotubes [1]) | Emax at 10 µM (L6-myotubes [2])
1 | CC(C)(C[C@@H]1CCN(S(C)(=O)=O)C1)NC[C@H](O)c1cccc(F)c1 [Example 67, (R)-1-(3-Fluorophenyl)-2-((2-methyl-1-((S)-1-(methylsulfonyl)-pyrrolidin-3-yl)propan-2-yl)amino)ethan-1-ol] | < 25% | > 75%
2 | CC(C)(C[C@H]1CCNC1=O)NC[C@H](O)c1cccc(F)c1 [Example 73, (R)-3-(2-(((R)-2-(3-Fluorophenyl)-2-hydroxyethyl)amino)-2-methyl-propyl)pyrrolidin-2-one hydrochloride] | < 25% | > 75%
3 | CC(C)(C[C@H]1CCCN(S(C)(=O)=O)C1)NC[C@H](O)c1cncc(F)c1 [Example 27, (R)-1-(5-Fluoropyridin-3-yl)-2-((2-methyl-1-((R)-1-(methylsulfonyl)-piperidin-3-yl)propan-2-yl)amino)ethan-1-ol dihydrochloride] | < 25% | 50 to 75%
4 | COC(=O)N1CCC[C@@H](CC(C)(C)NC[C@H](O)c2cccc(F)c2)C1 [Example 7, Methyl (S)-3-(2-(((R)-2-(3-fluorophenyl)-2-hydroxyethyl)amino)-2-methylpropyl)piperidine-1-carboxylate] | 50 to 75% | > 75%
5 | CC(C)(C[C@H]1CCCN(C(=O)OC(C)(C)C)C1)NC[C@H](O)c1cccc(F)c1 [Example 39, tert-Butyl (R)-3-(2-(((R)-2-(3-fluorophenyl)-2-hydroxyethyl)amino)-2-methylpropyl)piperidine-1-carboxylate] | 25 to 50% | 50 to 75%
6 | CC(C)(C[C@@H]1CCNC1)NC[C@H](O)c1cncc(F)c1 [Example 69, (R)-1-(5-Fluoropyridin-3-yl)-2-((2-methyl-1-((S)-pyrrolidin-3-yl)-propan-2-yl)amino)ethan-1-ol] | < 25% | > 75%
7 | CN(C)C(=O)N1CCC[C@@H](CC(C)(C)NC[C@H](O)c2cncc(F)c2)C1 [Example 18, (S)-3-(2-(((R)-2-(5-Fluoropyridin-3-yl)-2-hydroxyethyl)amino)-2-methylpropyl)-N,N-dimethylpiperidine-1-carboxamide dihydrochloride] | < 25% | > 75%
8 | CC(C)(C[C@H]1CCNC(=O)C1)NC[C@H](O)c1cccc(F)c1 [Example 52, (R)-4-(2-(((R)-2-(3-Fluorophenyl)-2-hydroxyethyl)amino)-2-methyl-propyl)piperidin-2-one] | < 25% | 50 to 75%
9 | CC(C)(C[C@H]1CNC(=O)C1)NC[C@H](O)c1cncc(F)c1 [Example 78, (R)-4-(2-(((R)-2-(5-Fluoropyridin-3-yl)-2-hydroxyethyl)amino)-2-methylpropyl)pyrrolidin-2-one dihydrochloride] | < 25% | > 75%
10 | CNC(=O)N1CCC[C@@H](CC(C)(C)NC[C@H](O)c2cccc(F)c2)C1 [Example 9, (S)-3-(2-(((R)-2-(3-Fluorophenyl)-2-hydroxyethyl)amino)-2-methyl-propyl)-N-methylpiperidine-1-carboxamide hydrochloride] | 25 to 50% | > 75%
11 | CC(=O)N1CCC(CC(C)(C)NC[C@H](O)c2cncc(F)c2)CC1 [Example 34, (R)-1-(4-(2-((2-(5-fluoropyridin-3-yl)-2-hydroxyethyl)amino)-2-methylpropyl)piperidin-1-yl)ethan-1-one dihydrochloride] | < 25% | 50 to 75%
12 | CC(C)(C[C@@H]1CCCCO1)NC[C@H](O)c1cccc(F)c1 [Example 82, (R)-1-(3-Fluorophenyl)-2-((2-methyl-1-((S)-tetrahydro-2H-pyran-2-yl)propan-2-yl)amino)ethan-1-ol] | < 25% | > 75%
13 | CC(C)(C[C@@H]1CNC(=O)C1)NC[C@H](O)c1cccc(F)c1 [Example 72, (S)-4-(2-(((R)-2-(3-Fluorophenyl)-2-hydroxyethyl)amino)-2-methyl-propyl)pyrrolidin-2-one hydrochloride] | 50 to 75% | > 75%
14 | CC(C)(CC1CCNCC1)NC[C@H](O)c1cncc(F)c1 [Example 46, (R)-1-(5-Fluoropyridin-3-yl)-2-((2-methyl-1-(piperidin-4-yl)propan-2-yl)amino)ethan-1-ol] | < 25% | 50 to 75%
15 | CC(C)(CC1CCNCC1)NC[C@H](O)c1cccc(F)c1 [Example 29, (R)-1-(3-Fluorophenyl)-2-((2-methyl-1-(piperidin-4-yl)propan-2-yl)-amino)ethan-1-ol] | < 25% | > 75%
16 | COC1CCN(CC(C)(C)NC[C@H](O)c2cccc(F)c2)CC1 [Example 85, (R)-1-(3-Fluorophenyl)-2-((1-(4-methoxypiperidin-1-yl)-2-methyl-propan-2-yl)amino)ethan-1-ol dihydrochloride] | < 25% | > 75%
17 | CC(C)(C[C@@H]1CCNC1)NC[C@H](O)c1cccc(F)c1 [Example 65, (R)-1-(3-Fluorophenyl)-2-((2-methyl-1-((S)-pyrrolidin-3-yl)propan-2-yl)amino)ethan-1-ol] | > 75% | > 75%
18 | CC(C)(C[C@H]1CCN(S(C)(=O)=O)C1)NC[C@H](O)c1cccc(F)c1 [Example 59, (R)-1-(3-Fluorophenyl)-2-((2-methyl-1-((R)-1-(methylsulfonyl)-pyrrolidin-3-yl)propan-2-yl)amino)ethan-1-ol] | < 25% | > 75%
19 | CC(C)(CC1CCN(C(=O)C(F)(F)F)CC1)NC[C@H](O)c1cncc(F)c1 [Example 48, (R)-2,2,2-Trifluoro-1-(4-(2-((2-(5-fluoropyridin-3-yl)-2-hydroxyethyl)-amino)-2-methylpropyl)piperidin-1-yl)ethan-1-one dihydrochloride] | < 25% | 50 to 75%
20 | CC(=O)N1CCC(CC(C)(C)NC[C@H](O)c2cccc(F)c2)CC1 [Example 30, (R)-1-(4-(2-((2-(3-Fluorophenyl)-2-hydroxyethyl)amino)-2-methyl-propyl)piperidin-1-yl)ethan-1-one hydrochloride] | < 25% | > 75%
21 | CC(C)(CC1CCN(C(=O)OC(C)(C)C)CC1)NC[C@H](O)c1cncc(F)c1 [Example 33, tert-Butyl (R)-4-(2-((2-(5-fluoropyridin-3-yl)-2-hydroxyethyl)amino)-2-methylpropyl)piperidine-1-carboxylate] | < 25% | > 75%
22 | CNC(=O)N1CCC(CC(C)(C)NC[C@H](O)c2cncc(F)c2)CC1 [Example 51, (R)-4-(2-((2-(5-Fluoropyridin-3-yl)-2-hydroxyethyl)amino)-2-methyl-propyl)-N-methylpiperidine-1-carboxamide dihydrochloride] | < 25% | 50 to 75%
23 | CC(C)(C[C@@H]1CNC(=O)C1)NC[C@H](O)c1cncc(F)c1 [Example 74, (S)-4-(2-(((R)-2-(5-Fluoropyridin-3-yl)-2-hydroxyethyl)amino)-2-methylpropyl)pyrrolidin-2-one dihydrochloride] | 25 to 50% | > 75%
24 | CC(C)(CC1CCN(S(C)(=O)=O)CC1)NC[C@H](O)c1cncc(F)c1 [Example 35, (R)-1-(5-Fluoropyridin-3-yl)-2-((2-methyl-1-(1-(methylsulfonyl)-piperidin-4-yl)propan-2-yl)amino)ethan-1-ol dihydrochloride] | < 25% | 50 to 75%
25 | CC(C)(C[C@@H]1CCCN(C(=O)OC(C)(C)C)C1)NC[C@H](O)c1cncc(F)c1 [Example 11, tert-Butyl (S)-3-(2-(((R)-2-(5-fluoropyridin-3-yl)-2-hydroxyethyl)-amino)-2-methylpropyl)piperidine-1-carboxylate] | > 75% | > 75%
26 | CC(C)(C[C@@H]1CCCOC1)NC[C@H](O)c1cccc(F)c1 [Example 84, (R)-1-(3-Fluorophenyl)-2-((2-methyl-1-((S)-tetrahydro-2H-pyran-3-yl)propan-2-yl)amino)ethan-1-ol] | 50 to 75% | > 75%
27 | CC(C)(CC1CCN(C(=O)C(C)(C)C)CC1)NC[C@H](O)c1cncc(F)c1 [Example 47, (R)-1-(4-(2-((2-(5-Fluoropyridin-3-yl)-2-hydroxyethyl)amino)-2-methylpropyl)piperidin-1-yl)-2,2-dimethylpropan-1-one dihydrochloride] | < 25% | 50 to 75%
